Data: patent publication US20230149146A1, “AN AUTOMATED CONTROLLED RELEASE DEVICE FOR LIVESTOCK MANAGEMENT AND METHODS OF USE THEREOF” (CORNELL UNIVERSITY, priority 2020, published 2023)
Entries after “also recorded” stand apart in the source; their conditions may differ. Marks after values point to notes of the source that are not given here. Where no end group is shown, it is not given here.

Key:
lactating Holstein cows [1] = experiment: Luteal regression and plasma P4 after IVG (catheter) or im PGF, first study and follow-up; type: in vivo, cow
Experimental: Catheters were employed to deliver IVG hormones in lactating Holstein cows. […] In a first study, regression of the corpus luteum (“CL regression”) and plasma P4 concentrations after IVG delivery of 25, 50, or 125 mg PGF (Dinoprost) or of saline 7.5 days after induction of ovulation by Ovsynch injections was evaluated. A positive control group received 25 mg of PGF im (i.e., by intramuscular injection), enabling a comparison of outcomes with im PGF to those with IVG PGF.

cows = experiment: Larger experiment: physiological outcomes for cows treated with PGF im or IVG; type: in vivo, cow
Description: The PGF experiments' ability to show equal luteal regression with im and IVG administration was limited by small N. Data from a larger, more recent experiment supports non-inferiority for IVG compared to im delivery of PGF to induce luteal regression. […] [table]

lactating Holstein cows [2] = experiment: Proof-of-concept: luteal regression by IVG PGF from single-chamber prototype device; type: in vivo, cow; conditions: two 50-mg doses of PGF 12 hours apart via prototype (e-Synch PGF); FIG. 13
Experimental: Lactating Holstein cows were randomized to receive two 50-mg doses of PGF 12 hours apart, or an equal amount of saline solution (negative control), or two 25-mg doses of PGF IVG (IVG positive control), or a single 25-mg dose of PGF im (im positive control). There were four cows in each group (except for saline, two cows). […] In short, administration worked as well as standard injections.

lactating Holstein cows [3] = experiment: In-vivo validation of automated IVG device: circulating P4 after PGF2α; parameters: species or system cow
Description: The objective was to develop and validate an electronically-controlled hormone delivery device for reproductive control of cattle. […] The IVG device comprises an outer 3D-printed plastic housing, fluid reservoirs connected to delivery pumps and tubing, a programmable circuit board, and a retention mechanism. For in-vitro testing, 4 pumps were programmed to release different target volumes (0.1, 0.2, 0.5, 1.0, and 2.0 g) in 4 replicates (n=80). A Bland-Altman plot was constructed to assess the magnitude of disagreement between expected and delivered volumes. Observations fell within acceptable limits of agreement (1.96 SD) >95% of the time, indicating overall good agreement (mean difference=−0.005 g). To assess in-vivo performance of the IVG device, lactating Holstein cows with at least 1 corpus luteum ≥15 mm in diameter were randomly allocated to 1 of 3 treatments: IM-PGF (n=6); two 25 mg intramuscular doses of PGF (Dinoprost) 24 h apart, DEV-PGF (n=6); four 25 mg doses of PGF released automatically by the IVG device every 12 h, and DEV-CTL (n=4); insertion of an empty IVG device (placebo control). Blood samples were collected at 0, 12, 24, 36, 48, and 72 h after treatment. Data was analyzed by ANOVA with repeated measures in SAS. All devices (12/12) remained in situ until removed at 48-h. Progesterone (P4) concentrations from 0 to 72 h were affected by treatment, time, and their interaction.
To assess IVG device performance in vivo, lactating nonpregnant primiparous and multiparous Holstein cows from the dairy unit of the Cornell University Ruminant Center (Harford, N.Y.) were enrolled in an experiment. Cows were housed in freestall barns with concrete flooring, self-locking head gates, and fans and sprinklers in the feedline. Cows were milked thrice daily at approximately 8-h intervals and were fed a TMR once a day with ad libitum access to feed and water.
All cows enrolled received a GnRH treatment (200 μg of gonadorelin acetate given intramuscular, Gonabreed, Parnell Pharmaceuticals, Overland Park, Kans., USA) at 40±3 DIM. Seven days later, transrectal ultrasonography (TUS) of the ovaries was performed using a 7.5-MHz linear probe (Ibex Pro; E. I. Medical Imagining, Loveland, Colo.). Cows with […] corpus luteum (CL) ≥15 mm in diameter (n=16) were randomly allocated to 1 of 3 treatments: IM-PGF (n=6), DEV-PGF (n=6), and DEV-CTRL (n=4). Cows in IM-PGF received 2 treatments of 25 mg of PGF2α (12.5 mg/mL of dinoprost tromethamine; Lutalyse HighCon, Zoetis, New York, N.Y.) 24 h apart as a 2 mL injection in the semimembranosus or semitendinosus muscle. Cows in DEV-PGF received 1 IVG device programmed to automatically release 4 doses of 25 mg of PGF2α at ˜12 h intervals (first dose released at time 0). Cows in the DEV-CTRL treatment received an IVG device without PGF2α to serve as a placebo control for the presence of the device in the vagina. All devices were removed at 48 h after insertion.
Blood samples (˜8 to 9 mL) were collected at time 0 and at 12, 24, 36, 48, and 72 h after treatment by puncture of caudal blood vessels using heparinized evacuated tubes (Vacutainer; BD, Franklin Lakes, N.J.). Samples were centrifuged at 2,000×g for 20 min at 4° C. Plasma aliquots were harvested and stored at −20° C. until assayed for progesterone (P4) in duplicate in 3 RIA assays performed as described in Beam, S. W., et al., “Energy balance and ovarian follicle development prior to the first ovulation postpartum in dairy cows receiving three levels of dietary fat.” Biol. Reprod. 56:133-142 (1997), the disclosure of which is incorporated herein by reference in its entirety. The average intra-assay coefficient of variation (CV) was 13.2% whereas the interassay CV was 17.0%. […]

lactating Holstein cows [4] = experiment: Luteal regression and plasma P4 after IVG (catheter) or im PGF, first study and follow-up; type: in vivo, cow; conditions: for CLR % (complete luteal regression, P4 < 1 ng/mL) / P4 (ng/mL): PGF25-2X-IVG: two IVG boluses 25 mg PGF 12 h apart
lactating Holstein cows [5] = experiment: LH response after IVG delivery of GnRH; type: in vivo, cow; conditions: citric acid as absorption enhancer
Experimental: LH response of lactating Holstein cows after IVG delivery of GnRH was evaluated. Cows received IVG GnRH (Gonadorelin) at a standard dose of 100 μg, or at doses of 500 or 1,000 μg without and with citric acid as an absorption enhancer. A positive control group received 100 μg GnRH im and a negative control group received saline IVG.

[6] = PGF25-IM: single im bolus 25 mg PGF, 60 h after treatment
[7] = PGF25-IM: single im bolus 25 mg PGF, 72 h after treatment
[8] = PGF25-IVG: single IVG bolus 25 mg PGF, 60 h after treatment
[9] = PGF25-IVG: single IVG bolus 25 mg PGF, 72 h after treatment
[10] = IVG: two 25 mg doses of PGF 12 h apart

CCCCC[C@H](O)/C=C/[C@@H]1[C@@H](C/C=C\CCCC(=O)O)[C@@H](O)C[C@H]1O [PGF, prostaglandin F2α]
CLR % (complete luteal regression, P4 < 1 ng/mL) (lactating Holstein cows [1]; [6]): 86^b %
P4 (ng/mL) (lactating Holstein cows [1]; [6]): 0.67 ± 0.23^bc ng/mL
CLR % (complete luteal regression, P4 < 1 ng/mL) (lactating Holstein cows [1]; [7]): 86^b %
P4 (ng/mL) (lactating Holstein cows [1]; [7]): 0.57 ± 0.24^c ng/mL
CLR % (complete luteal regression, P4 < 1 ng/mL) (lactating Holstein cows [1]; [8]): 42^b %
P4 (ng/mL) (lactating Holstein cows [1]; [8]): 1.74 ± 0.50^b ng/mL
CLR % (complete luteal regression, P4 < 1 ng/mL) (lactating Holstein cows [1]; [9]): 42^b %
P4 (ng/mL) (lactating Holstein cows [1]; [9]): 2.24 ± 0.64^b ng/mL
Estrus after PGF, % (increased physical activity within 72 h of treatment) (cows; IM: 25 mg of PGF im): 47.0%
Ovulation, % (in response to GnRH given within 72 h of PGF treatment) (cows; IM: 25 mg of PGF im): 88.0%
P4 (ng/mL) at 48 h (cows; IM: 25 mg of PGF im): 0.4 ± 0.1 ng/mL
P4 (ng/mL) at 72 h (cows; IM: 25 mg of PGF im): 0.4 ± 0.1 ng/mL
CL regression, % (P4 from >1 ng/mL at treatment to <0.5 ng/mL 72 h after) (cows; IM: 25 mg of PGF im (Dinoprost), n = 169): 81.1%
Estrus after PGF, % (increased physical activity within 72 h of treatment) (cows; [10]): 51.1%
Ovulation, % (in response to GnRH given within 72 h of PGF treatment) (cows; [10]): 84.1%
P4 (ng/mL) at 48 h (cows; [10]): 0.5 ± 0.1 ng/mL
P4 (ng/mL) at 72 h (cows; [10]): 0.6 ± 0.1 ng/mL
CL regression, % (P4 from >1 ng/mL at treatment to <0.5 ng/mL 72 h after) (cows; IVG: two 25 mg doses of PGF 12 h apart (Dinoprost), n = 179): 81.0%
pattern of P4 decline (lactating Holstein cows [2]): consistent with CL regression and similar to that of cows in the positive control groups
P4, one cow (lactating Holstein cows [3]; DEV-PGF (four 25 mg doses by IVG device every 12 h), 36 h after treatment): 1.20 ng/mL
P4 concentrations compared with placebo device control (lactating Holstein cows [3]; DEV-PGF and IM-PGF vs DEV-CTRL, from 24 to 72 h): lesser P4 than cows in DEV-CTL; also recorded: lesser concentrations of P4 than cows in the DEV-CTRL treatment
P4, all other cows (lactating Holstein cows [3]; DEV-PGF and IM-PGF, 36 h after treatment): < 1 ng/mL
P4, all other cows, end of the sampling period (lactating Holstein cows [3]; DEV-PGF and IM-PGF, 72 h): < 0.5 ng/mL
luteal regression by PGF delivered automatically by the device (lactating Holstein cows [3]; DEV-PGF, lactating dairy cows): successful induction of luteal regression; also recorded: complete luteal regression
P4, one cow (lactating Holstein cows [3]; IM-PGF (two 25 mg im doses 24 h apart), 36 h after treatment): 1.21 ng/mL
P4, one cow, end of the sampling period (lactating Holstein cows [3]; IM-PGF, 72 h): 0.50 ng/mL
P4 concentrations, DEV-PGF compared with IM-PGF (lactating Holstein cows [3]; entire sampling period, 0 to 72 h): did not differ
CLR % (complete luteal regression, P4 < 1 ng/mL) (lactating Holstein cows [4]; 60 h after treatment): 100^b %
P4 (ng/mL) (lactating Holstein cows [4]; 60 h after treatment): 0.19 ± 0.04^c ng/mL
CLR % (complete luteal regression, P4 < 1 ng/mL) (lactating Holstein cows [4]; 72 h after treatment): 100^b %
P4 (ng/mL) (lactating Holstein cows [4]; 72 h after treatment): 0.21 ± 0.07^c ng/mL
CL regression, single bolus of IVG PGF compared with im PGF (lactating Holstein cows [4]; single IVG bolus (25, 50 or 125 mg) vs 25 mg im): less effectual than im PGF
cows that experienced complete CL regression (lactating Holstein cows [4]; two 25 mg boluses of IVG PGF 12 hours apart, follow-up experiment): 100%
blood/plasma progesterone after treatment compared with im PGF (lactating Holstein cows [4]; two IVG boluses 25 mg PGF 12 h apart (PGF25-2X-IVG) vs PGF25-IM, FIG. 10): indistinguishable from a single dose intramuscular injection of PGF
luteolytic response compared with single im injection (lactating Holstein cows [4]; two IVG boluses of PGF 12 hours apart, summary of the PGF experiments): comparable luteolytic response to a single intramuscular injection of PGF

gonadotropin releasing hormone (QHWSYGLRPG; ends and bridges not checked; UniProt P01148 24-33, looked up) [GnRH, releasing hormone that triggers LH release]
effect of adding 10% citric acid to the GnRH mixture (lactating Holstein cows [5]): necessary for efficacy of IVG GnRH
